# Assay results reported in ChEMBL document CHEMBL2074043, “Investigation of fractions present in the stem bark of Annickia kummeriae on their P-glycoprotein inhibitory pump activity” (Phytother Res, 2004).
# Target: ATP-dependent translocase ABCB1 (Homo sapiens, UniProt P08183)
# Assay: TP_TRANSPORTER: increase in intracellular accumulation of rhodamine 6G in […] cell
# Type: functional, cell-based
# Sequence of ATP-dependent translocase ABCB1 (P08183 whole entry): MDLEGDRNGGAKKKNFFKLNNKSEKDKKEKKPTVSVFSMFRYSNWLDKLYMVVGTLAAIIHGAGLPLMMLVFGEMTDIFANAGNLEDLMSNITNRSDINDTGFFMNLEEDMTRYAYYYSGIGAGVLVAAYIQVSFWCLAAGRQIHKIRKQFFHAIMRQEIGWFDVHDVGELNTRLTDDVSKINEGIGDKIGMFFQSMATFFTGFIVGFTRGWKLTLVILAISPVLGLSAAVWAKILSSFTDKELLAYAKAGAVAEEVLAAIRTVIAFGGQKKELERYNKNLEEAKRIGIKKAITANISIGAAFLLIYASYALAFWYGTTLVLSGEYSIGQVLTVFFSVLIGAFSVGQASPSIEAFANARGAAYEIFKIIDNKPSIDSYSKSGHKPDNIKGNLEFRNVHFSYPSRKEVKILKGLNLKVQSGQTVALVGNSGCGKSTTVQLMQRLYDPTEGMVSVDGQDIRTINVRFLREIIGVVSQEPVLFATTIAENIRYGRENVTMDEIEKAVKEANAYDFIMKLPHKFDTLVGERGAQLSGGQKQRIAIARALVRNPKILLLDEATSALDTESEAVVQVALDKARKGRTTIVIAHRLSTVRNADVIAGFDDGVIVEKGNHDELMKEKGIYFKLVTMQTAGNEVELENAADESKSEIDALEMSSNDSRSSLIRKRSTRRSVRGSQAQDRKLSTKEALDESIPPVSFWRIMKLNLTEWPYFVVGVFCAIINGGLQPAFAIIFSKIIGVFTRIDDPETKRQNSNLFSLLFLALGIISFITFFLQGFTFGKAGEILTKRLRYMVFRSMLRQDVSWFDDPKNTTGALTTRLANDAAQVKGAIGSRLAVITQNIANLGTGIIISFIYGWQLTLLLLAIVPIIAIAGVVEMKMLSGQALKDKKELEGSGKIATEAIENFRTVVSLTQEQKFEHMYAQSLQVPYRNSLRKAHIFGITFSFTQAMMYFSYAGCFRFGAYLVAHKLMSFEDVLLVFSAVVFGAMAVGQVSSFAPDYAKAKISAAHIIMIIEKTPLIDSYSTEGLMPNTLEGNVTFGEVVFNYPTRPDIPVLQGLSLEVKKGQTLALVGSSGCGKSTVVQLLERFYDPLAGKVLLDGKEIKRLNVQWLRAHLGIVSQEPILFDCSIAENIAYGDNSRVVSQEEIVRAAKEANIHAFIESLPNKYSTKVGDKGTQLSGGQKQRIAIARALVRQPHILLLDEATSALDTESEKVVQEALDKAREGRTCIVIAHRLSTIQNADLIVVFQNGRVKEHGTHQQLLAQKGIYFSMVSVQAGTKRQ
substance,measurement,value
STEM BARK OF ANNICKIA KUMMERIAE EXTRACT,Activity,inhibitor [+]
